Data published in DBAASP.
≈ marks a conversion by molar mass, not a printed value.

How the values were obtained:
Test in all cases: ≥ marks a high value that may be exact or a test limit, other limits are often not marked, values filed in µg/mL are converted to µM
[1] = test system: Bacillus subtilis ATCC 23857
[2] = test system: Escherichia coli ATCC 25922
[3] = test system: Escherichia coli ATCC 25726
[4] = test system: Staphylococcus aureus ATCC 25923
[5] = test system: Candida albicans ATCC 90028
Micrococcus luteus = test system: Micrococcus luteus
Bacillus subtilis 168 = test system: Bacillus subtilis 168
Staphylococcus aureus = test system: Staphylococcus aureus
[6] = test system: Klebsiella pneumoniae ATCC 700603
[7] = test system: Pseudomonas aeruginosa ATCC 9027
[8] = test system: Staphylococcus epidermidis ATCC 12228
[9] = test system: Staphylococcus aureus ATCC 29213
[10] = test system: Enterococcus faecalis ATCC 29212
[11] = test system: Acinetobacter baumannii ATCC 19606
[12] = test system: Pseudomonas aeruginosa ATCC 27853

MIC [1] [µM] | MIC [2] [µM] | MIC [3] [µM] | MIC [4] [µM] | Compound | further results
 | 31.8 (≈ 62.5 µg/mL) |  |  | CSCC[C@H](NC(=O)[C@H](C)NC(=O)[C@H](CCCCN)NC(=O)[C@H](CCCN=C(N)N)NC(=O)[C@H](C)NC(=O)[C@H](CCCN=C(N)N)NC(=O)[C@H](CCC(=O)O)NC(=O)[C@@H](NC(=O)[C@H](CCCCN)NC(=O)CNC(=O)CNC(=O)CNC(=O)[C@H](Cc1ccccc1)NC(=O)[C@H](CCCCN)NC(=O)[C@@H](N)CCCCN)[C@@H](C)O)C(=O)N[C@@H](C)C(=O)N[C@H](C(=O)N[C@@H](CCC(=O)O)C(=O)O)C(C)C [KKFGGGKTERARKAMAVE] | MIC (Bacillus subtilis 168): 7.94 µM (≈ 15.6 µg/mL); MIC (Staphylococcus aureus): 7.94 µM (≈ 15.6 µg/mL); MIC (Micrococcus luteus): 31.8 µM (≈ 62.5 µg/mL)
 |  | ≥ 80 | 40 (≈ 115 µg/mL) | CC[C@H](C)[C@H](N)C(=O)N[C@H](C(=O)N[C@H](C(=O)N1CCC[C@H]1C(=O)N1CCC[C@H]1C(=O)N[C@H](C(=O)N[C@H](C(=O)N[C@@H](CCCCN)C(=O)N[C@@H](CC(=O)O)C(=O)N[C@H](C(=O)N[C@@H](CC(C)C)C(=O)N[C@@H](CCCCN)C(=O)N[C@@H](CCCCN)C(=O)N[C@@H](Cc1ccccc1)C(=O)N[C@@H](Cc1ccccc1)C(=O)N[C@@H](CCCCN)C(=O)NCC(=O)NCC(=O)N[C@H](C(=O)N[C@@H](C)C(=O)NCC(=O)N[C@H](C(=O)N[C@@H](CCSC)C(=O)NCC(=O)N[C@@H](CCCCN)C(=O)N[C@@H](CO)C(=O)N[C@@H](CCC(N)=O)C(=O)O)C(C)C)[C@@H](C)CC)[C@@H](C)O)C(C)C)[C@@H](C)CC)[C@@H](C)CC)[C@@H](C)O [ITIPPIVKDTLKKFFKGGIAGVMGKSQ] | 
8 (≈ 11.6 µg/mL) | 8 (≈ 11.6 µg/mL) |  | 4 (≈ 5.8 µg/mL) | CC[C@H](C)[C@H](NC(=O)[C@H](C)NC(=O)[C@H](CCCCN)NC(=O)[C@H](C)NC(=O)[C@@H](NC(=O)[C@H](C)NC(=O)[C@H](CC(C)C)NC(=O)[C@H](CC(C)C)NC(=O)[C@H](C)NC(=O)[C@H](CCCCN)NC(=O)[C@H](CC(C)C)NC(=O)[C@H](CC(N)=O)NC(=O)[C@@H](N)CC(C)C)C(C)C)C(=O)N[C@@H](CC(C)C)C(N)=O [LNLKALLAVAKAIL] | MIC [6]: 16 µM (≈ 23.2 µg/mL); MIC [7]: 16 µM (≈ 23.2 µg/mL)
≥ 512 | 1020 (≈ 1680 µg/mL) |  |  | CC[C@H](C)[C@H](N)C(=O)N[C@@H](CC(=O)O)C(=O)N[C@@H](Cc1c[nH]c2ccccc12)C(=O)N[C@@H](CCCCN)C(=O)N[C@@H](CCCCN)C(=O)N[C@@H](CC(C)C)C(=O)N1CCC[C@H]1C(=O)N[C@@H](CC(=O)O)C(=O)N[C@@H](C)C(=O)N[C@@H](C)C(=O)N[C@@H](CCCCN)C(=O)N[C@@H](CCC(N)=O)C(=O)N[C@H](C(=O)N[C@@H](CC(C)C)C(N)=O)[C@@H](C)CC [IDWKKLPDAAKQIL] | MIC [8]: > 1020 µM; MIC [9]: > 1020 µM

More lines, now with the values behind:

Compound | MIC [1] [µM] | MIC [2] [µM] | MIC [3] [µM] | MIC [4] [µM] | further results
CC[C@H](C)[C@H](NC(=O)CN)C(=O)N[C@H](C(=O)N[C@@H](C)C(=O)N[C@@H](C)C(=O)N[C@H](C(=O)N[C@H](C(=O)N[C@H](C(=O)N[C@@H](CCCCN)C(=O)N[C@H](C(=O)N[C@@H](CCCCN)C(=O)N[C@@H](CCCCN)C(N)=O)[C@@H](C)CC)[C@@H](C)CC)[C@@H](C)CC)[C@@H](C)CC)[C@@H](C)CC [GIIAAIIIKIKK] | 16 (≈ 20.5 µg/mL) | > 128 |  |  | 
CC[C@H](C)[C@H](NC(=O)[C@H](CCCCN)NC(=O)CNC(=O)[C@H](C)NC(=O)[C@@H](NC(=O)[C@H](CO)NC(=O)CNC(=O)[C@H](C)NC(=O)[C@H](CCCCN)NC(=O)[C@H](CO)NC(=O)[C@H](C)NC(=O)[C@H](CCSC)NC(=O)CN)C(C)C)C(=O)N[C@@H](C)C(=O)N[C@@H](CCCCN)C(=O)N[C@@H](Cc1ccccc1)C(=O)N[C@@H](C)C(=O)N[C@@H](CC(C)C)C(=O)NCC(=O)N[C@@H](C)C(=O)N[C@@H](CC(C)C)C(N)=O [GMASKAGSVAGKIAKFALGAL] |  |  | ≥ 80 | 80 (≈ 156 µg/mL) | MIC [5]: ≥ 160 µM
CC[C@H](C)[C@H](NC(=O)CNC(=O)[C@H](CO)NC(=O)[C@@H](NC(=O)[C@H](CC(C)C)NC(=O)[C@H](CCC(=O)O)NC(=O)[C@H](CO)NC(=O)[C@H](C)NC(=O)[C@H](CCCCN)NC(=O)[C@H](CC(=O)O)NC(=O)[C@H](CCCCN)NC(=O)[C@@H](NC(=O)[C@H](CCCCN)NC(=O)[C@H](CCC(N)=O)NC(=O)[C@H](Cc1c[nH]c2ccccc12)NC(=O)[C@H](CC(C)C)NC(=O)CN)[C@@H](C)CC)C(C)C)C(=O)N[C@H](C(=O)N[C@@H](CCC(=O)O)C(=O)NCC(=O)N[C@H](C(=O)N[C@@H](CCCCN)C(N)=O)C(C)C)C(C)C [GLWQKIKDKASELVSGIVEGVK] |  |  |  |  | MIC (Micrococcus luteus): 0.168 µM (≈ 0.4 µg/mL)
CC[C@H](C)[C@H](N)C(=O)N[C@@H](CC(=O)O)C(=O)N[C@@H](Cc1c[nH]c2ccccc12)C(=O)N[C@@H](CCCCN)C(=O)N[C@@H](CCCCN)C(=O)N[C@@H](CC(C)C)C(=O)N[C@@H](CC(C)C)C(=O)N1CCC[C@H]1C(=O)N[C@@H](C)C(=O)N[C@@H](C)C(=O)N[C@@H](CCCCN)C(=O)N[C@@H](CCC(N)=O)C(=O)N[C@H](C(=O)N[C@@H](CC(C)C)C(N)=O)[C@@H](C)CC [IDWKKLLPAAKQIL] | ≥ 32 | 128 (≈ 209 µg/mL) |  |  | MIC [8]: 256 µM (≈ 419 µg/mL); MIC [9]: 512 µM (≈ 838 µg/mL)
CC[C@H](C)[C@H](NC(=O)[C@H](CCCCN)NC(=O)[C@H](CO)NC(=O)[C@H](C)NC(=O)[C@H](Cc1c[nH]c2ccccc12)NC(=O)CN)C(=O)NCC(=O)N[C@@H](CCC(N)=O)C(=O)N[C@@H](C)C(=O)N[C@@H](CC(C)C)C(=O)NCC(=O)N[C@@H](CCCCN)C(=O)N[C@H](C(=O)N[C@@H](C)C(=O)N[C@@H](CCCCN)C(=O)N[C@H](C(=O)NCC(=O)N[C@@H](CC(C)C)C(=O)N[C@@H](CCC(N)=O)C(=O)N[C@@H](CCC(N)=O)C(=O)N[C@@H](Cc1ccccc1)C(=O)N[C@H](C(=O)N[C@@H](CCC(N)=O)C(=O)N1CCC[C@H]1C(=O)N[C@@H](CCCCN)C(=O)O)[C@@H](C)CC)C(C)C)C(C)C [GWASKIGQALGKVAKVGLQQFIQPK] |  |  | 12.5 (≈ 33.2 µg/mL) | > 100 | 
CC[C@H](C)[C@H](NC(=O)[C@H](C)NC(=O)[C@@H](NC(=O)[C@H](CCCCN)NC(=O)[C@H](C)NC(=O)[C@H](CC(C)C)NC(=O)[C@H](CCCCN)NC(=O)CNC(=O)[C@H](CC(C)C)NC(=O)[C@@H](NC(=O)[C@H](CO)NC(=O)CNC(=O)[C@H](C)NC(=O)[C@H](CCCCN)NC(=O)[C@H](CO)NC(=O)[C@H](C)NC(=O)[C@H](CCSC)NC(=O)CN)C(C)C)C(C)C)C(=O)NCC(=O)N[C@@H](C)C(=O)N[C@@H](CC(C)C)C(N)=O [GMASKAGSVLGKLAKVAIGAL] |  |  | 25 (≈ 48.5 µg/mL) | 100 (≈ 194 µg/mL) | 
CC[C@H](C)[C@H](NC(=O)CNC(=O)[C@@H](NC(=O)[C@H](CCSC)NC(=O)[C@H](C)NC(=O)[C@H](CC(N)=O)NC(=O)[C@H](CCCCN)NC(=O)[C@H](Cc1ccccc1)NC(=O)[C@H](CO)NC(=O)[C@H](CC(=O)O)NC(=O)[C@H](CC(C)C)NC(=O)[C@H](CC(C)C)NC(=O)CN)[C@@H](C)CC)C(=O)N[C@@H](C)C(=O)N[C@@H](CCCCN)C(=O)N[C@@H](CO)C(=O)N[C@@H](C)C(=O)NCC(=O)N[C@@H](CCCCN)C(=O)N[C@H](C(=O)N[C@@H](C)C(=O)N[C@@H](CC(C)C)C(=O)N[C@@H](CC(N)=O)C(=O)N[C@@H](CCCCN)C(=O)N[C@H](C(=O)N[C@@H](C)C(=O)N[C@H]1CSSC[C@@H](C(=O)O)NC(=O)[C@H]([C@@H](C)O)NC(=O)[C@H](CCCCN)NC(=O)[C@H](CC(=O)O)NC(=O)[C@H]([C@@H](C)CC)NC(=O)[C@H](CCCCN)NC1=O)[C@@H](C)CC)[C@@H](C)O [GLLDSFKNAMIGIAKSAGKTALNKIACKIDKTC] |  |  | 18.2 (≈ 62.5 µg/mL) | > 73 | 
CC[C@H](C)[C@H](NC(=O)CN)C(=O)N[C@@H](C)C(=O)N[C@@H](C)C(=O)NCC(=O)N[C@H](C(=O)N[C@H](C(=O)N[C@H](C(=O)N[C@@H](CCCCN)C(=O)N[C@H](C(=O)N[C@@H](CCCCN)C(=O)N[C@@H](CCCCN)C(N)=O)[C@@H](C)CC)[C@@H](C)CC)[C@@H](C)CC)[C@@H](C)CC [GIAAGIIIKIKK] | ≥ 32 | 32 (≈ 39.2 µg/mL) |  |  | 
CC(C)C[C@H](NC(=O)[C@H](CC(C)C)NC(=O)[C@@H](NC(=O)[C@H](CCCCN)NC(=O)[C@H](Cc1ccccc1)NC(=O)[C@H](CCCN=C(N)N)NC(=O)[C@H](CCCCN)NC(=O)[C@H](CC(C)C)NC(=O)[C@H](CC(C)C)NC(=O)CN)[C@@H](C)O)C(N)=O [GLLKRFKTLL] | ≥ 32 | 64 (≈ 76 µg/mL) |  | 128 (≈ 152 µg/mL) | MIC [8]: 16 µM (≈ 19 µg/mL); MIC [10]: 256 µM (≈ 304 µg/mL); MIC [6]: 128 µM (≈ 152 µg/mL); MIC [11]: 256 µM (≈ 304 µg/mL); MIC [12]: 16 µM (≈ 19 µg/mL)
